# Results published in patent US20240192197A1, “NOVEL SCREENING SYSTEM FOR DRUG TARGET ANTAGONIST BASED ON CELL LIFE/DEATH PHENOTYPE” (CENTER FOR EXCELLENCE IN MOLECULAR CELL SCIENCE, CHINESE …, priority 2021, published 2024).
# Target: T1, FKBP12(F36V)-ΔCASP9 fusion protein (Homo sapiens, UniProt P55211+P62942, F37V)
# T1 construct: expressed in transfected cells
# Test: Verification of screening cell lines: AP1903-induced death of cells expressing target protein-FKBP12(F36V)-ΔCASP9 fusion
# Format: cell-based
# Details: no target protein degradation agent present
# Description: The screening system of the F-C fusion protein of the present invention can be applied to important targets of various diseases.
# T1 sequence (P62942+P55211 fused P62942:F37V): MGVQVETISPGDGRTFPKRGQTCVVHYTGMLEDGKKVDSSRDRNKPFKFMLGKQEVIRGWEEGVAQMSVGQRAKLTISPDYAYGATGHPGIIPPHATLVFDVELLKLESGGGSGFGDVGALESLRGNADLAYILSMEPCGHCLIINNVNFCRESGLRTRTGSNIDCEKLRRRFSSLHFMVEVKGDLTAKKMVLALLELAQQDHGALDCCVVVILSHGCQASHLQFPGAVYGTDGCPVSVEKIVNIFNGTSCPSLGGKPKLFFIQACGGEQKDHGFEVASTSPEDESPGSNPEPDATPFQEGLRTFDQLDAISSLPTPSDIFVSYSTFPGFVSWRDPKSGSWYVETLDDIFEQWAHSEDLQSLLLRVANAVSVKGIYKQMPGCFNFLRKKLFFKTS
structure (smiles),measurement,value
CC[C@H](C(=O)N1CCCC[C@H]1C(=O)O[C@H](CCc1ccc(OC)c(OC)c1)c1cccc(OCC(=O)NCCNC(=O)COc2cccc([C@@H](CCc3ccc(OC)c(OC)c3)OC(=O)[C@@H]3CCCCN3C(=O)[C@@H](CC)c3cc(OC)c(OC)c(OC)c3)c2)c1)c1cc(OC)c(OC)c(OC)c1 [AP1903],state of cells expressing target protein-FKBP12(F36V)-ΔCASP9 fusion after AP1903,cells are dead
